Drawing on ChEMBL document CHEMBL1153458, “Design, synthesis and evaluation of a novel cyclohexanamine class of neuropeptide Y Y1 receptor antagonists” (Bioorg Med Chem Lett, 2009), this text covers pKa for 2 compounds.

Each structure is given as a SMILES string.

The pKa is the pH at which an ionisable group is half protonated.

A short description of this series: physchem. The conditions noted are these: human.

`COc1ccc([C@@H](C)N[C@@H]2CC[C@@H](C(=O)N3CCC(C(=O)N4CCCC4)(c4ccccc4)CC3)C(C)(C)C2)cc1` registered a pKa of 10.2. With `COc1ccc([C@H](N[C@@H]2CC[C@@H](C(=O)N3CCC(C(=O)N4CCCC4)(c4ccccc4)CC3)C(C)(C)C2)C(F)(F)F)cc1` the figure was 4.24.
